Test [1] has as its target T1, ApGLNT1 (Acyrthosiphon pisum, UniProt F8RL01).
T1 sequence (F8RL01 1-500): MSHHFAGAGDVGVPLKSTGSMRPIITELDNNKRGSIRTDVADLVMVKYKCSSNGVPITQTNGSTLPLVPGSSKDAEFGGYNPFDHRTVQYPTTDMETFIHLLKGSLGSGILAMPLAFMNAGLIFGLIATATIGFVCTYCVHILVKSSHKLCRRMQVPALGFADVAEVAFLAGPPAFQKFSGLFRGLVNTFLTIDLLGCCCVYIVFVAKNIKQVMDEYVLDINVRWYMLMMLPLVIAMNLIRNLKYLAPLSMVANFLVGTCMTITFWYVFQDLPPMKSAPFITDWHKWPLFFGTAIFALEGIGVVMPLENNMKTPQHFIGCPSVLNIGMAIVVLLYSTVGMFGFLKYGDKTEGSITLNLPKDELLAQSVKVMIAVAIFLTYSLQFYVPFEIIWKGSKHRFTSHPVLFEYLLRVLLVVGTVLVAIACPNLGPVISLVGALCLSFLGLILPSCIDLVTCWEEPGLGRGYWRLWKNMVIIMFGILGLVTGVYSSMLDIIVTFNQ
The experiment in a line: cell-based.

Test [2] deals with T2, PhumGLNT1 (Pediculus humanus, UniProt A0A2L0RIB5).
T2 sequence (A0A2L0RIB5 1-513): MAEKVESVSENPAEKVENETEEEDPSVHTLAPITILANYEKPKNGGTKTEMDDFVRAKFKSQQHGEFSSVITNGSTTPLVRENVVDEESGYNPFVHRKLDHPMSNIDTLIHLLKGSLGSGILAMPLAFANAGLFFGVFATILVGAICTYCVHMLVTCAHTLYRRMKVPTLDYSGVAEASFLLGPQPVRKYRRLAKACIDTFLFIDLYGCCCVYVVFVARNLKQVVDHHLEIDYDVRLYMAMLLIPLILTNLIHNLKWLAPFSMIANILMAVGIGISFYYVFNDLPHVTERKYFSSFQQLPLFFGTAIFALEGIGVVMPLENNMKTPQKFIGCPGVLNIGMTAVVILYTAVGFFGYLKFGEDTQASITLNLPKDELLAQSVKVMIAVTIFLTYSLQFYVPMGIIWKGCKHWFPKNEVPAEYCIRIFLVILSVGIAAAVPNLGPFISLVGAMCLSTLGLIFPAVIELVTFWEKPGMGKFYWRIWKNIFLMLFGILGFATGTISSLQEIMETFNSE
The experiment in a line: cell-based.

Test [3] has as its target T3, PcitGLNT1 (Planococcus citri, UniProt A0A2L0RIC1).
T3 sequence (A0A2L0RIC1 1-502): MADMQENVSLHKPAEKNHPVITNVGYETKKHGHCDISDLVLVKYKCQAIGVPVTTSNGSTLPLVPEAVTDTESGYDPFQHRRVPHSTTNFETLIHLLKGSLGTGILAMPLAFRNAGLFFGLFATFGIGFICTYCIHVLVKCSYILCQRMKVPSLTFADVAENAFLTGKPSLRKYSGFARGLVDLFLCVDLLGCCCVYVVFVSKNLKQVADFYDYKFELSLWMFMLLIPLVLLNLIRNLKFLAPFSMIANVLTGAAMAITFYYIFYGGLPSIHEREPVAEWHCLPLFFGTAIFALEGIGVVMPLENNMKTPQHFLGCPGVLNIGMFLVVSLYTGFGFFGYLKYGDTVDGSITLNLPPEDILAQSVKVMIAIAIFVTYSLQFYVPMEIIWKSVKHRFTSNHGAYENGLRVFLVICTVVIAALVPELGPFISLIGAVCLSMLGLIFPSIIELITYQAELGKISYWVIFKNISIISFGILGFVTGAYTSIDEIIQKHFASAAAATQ
The experiment in a line: cell-based.

For test [4], the target named is T4, DcitGLNT1 (Diaphorina citri, UniProt A0A2L0RID4).
T4 sequence (A0A2L0RID4 1-508): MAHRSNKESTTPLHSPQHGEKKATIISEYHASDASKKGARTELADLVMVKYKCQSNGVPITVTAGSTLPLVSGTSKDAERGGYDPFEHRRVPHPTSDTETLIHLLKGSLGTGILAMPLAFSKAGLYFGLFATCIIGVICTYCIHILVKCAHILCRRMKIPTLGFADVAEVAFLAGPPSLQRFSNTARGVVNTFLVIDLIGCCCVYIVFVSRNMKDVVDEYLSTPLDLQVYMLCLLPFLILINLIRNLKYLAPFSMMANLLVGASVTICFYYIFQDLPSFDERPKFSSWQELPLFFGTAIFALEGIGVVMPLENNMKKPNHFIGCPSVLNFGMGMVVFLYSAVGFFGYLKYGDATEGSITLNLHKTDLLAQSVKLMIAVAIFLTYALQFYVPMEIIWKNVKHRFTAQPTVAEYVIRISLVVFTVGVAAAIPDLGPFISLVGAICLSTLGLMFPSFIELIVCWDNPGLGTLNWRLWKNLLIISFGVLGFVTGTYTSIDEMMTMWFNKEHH
Description: cell-based.

In test [5] the target is T2, PhumGLNT1. The experiment in a line: two-electrode voltage clamp, inward current in Xenopus oocytes. The class given is cell-based. For orientation: In two-electrode clamp one electrode senses voltage and the other passes current.
Test [6] has as its target T4, DcitGLNT1. The test is described as above. It is filed as cell-based.
For test [7], the target named is T1, ApGLNT1. The description is as above. It is filed as cell-based.
The target in test [8] is T3, PcitGLNT1. The test is described as above. The class given is cell-based.

Usually IC50 stands for the concentration at which inhibition is half-maximal. A higher IC50 goes with a need for much substance. In general, EC50 refers to the midpoint of the concentration-response curve. A higher EC50 goes with lower potency in that assay.

Regarding `N=C(N)NCCC[C@H](N)C(=O)O` [arginine], the IC50 worked out at 5.1 ± 0.9 mM against ApGLNT1 [1], 2.8 ± 2 mM on PhumGLNT1 [2], 2.5 ± 0.2 mM against PcitGLNT1 [3] and 6.1 ± 0.8 mM at DcitGLNT1 [4].

As for `NC(=O)CC[C@H](N)C(=O)O` [glutamine], the EC50 on PhumGLNT1 [5] turned out to be 1.5 ± 0.2 mM; at DcitGLNT1 [6], 35.2 ± 18.5 mM; at ApGLNT1 [7] it was 5.7 ± 0.8 mM; on PcitGLNT1 [8], 2.1 ± 0.2 mM.

The record behind these values is article PMC10614625 (Proceedings of the National Academy of Sciences of the …, 2023).
